Measured values from article PMC8707451, “Separation and Identification of Antioxidants and Aldose Reductase Inhibitors in Lepechinia meyenii (Walp.) Epling” (Plants, 2021).
Marks after values point to notes of the source that are not given here.

Key:
[1] = DPPH radical scavenging assay (antioxidant); details: for IC50: pure compounds
Method: The antioxidant potential of the samples was evaluated using DPPH radical scavenging assay, as reported previously. In brief, 180 μL of freshly prepared DPPH solution (0.32 mM in MeOH) was mixed with 20 μL of the sample (in 50% MeOH, extracts and fractions, 50–400 µg/mL; components, 125–500 µM) in a 96-well plate and incubated for 20 min in the dark at 25 °C. Then, the absorbance (570 nm) of the reaction solution was measured using an EL800 microplate reader (Bio-Tek Instruments, Winooski, VT, USA). Quercetin was used as a positive control.

[2] = molecular target: rat lens AR (aldose reductase) (Rattus norvegicus, UniProt P07943); test: AR inhibition assay with rat lens AR homogenate;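 note: supernatant of Sprague–Dawley rat lens extract as enzyme, DL-glyceraldehyde substrate, absorbance at 340 nm followed over 6 min, DMSO up to 0.5% v/v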
Method: The eyes of 10-week Sprague–Dawley rats (250–280 g) were removed and kept at −70 °C before use. Then, the lenses were removed from the eyes using surgical scissors and tweezers, ground in a mortar (precooled at −70 °C) and extracted using 0.1 M phosphate-buffered saline (PBS) of pH 6.2 (approximately 0.5 mL of buffer per one rat lens). The extract solution was further centrifuged at 10,000× g for 30 min at 4 °C (Mega 17R, Hanil Science Industry, Gimpo, Korea), and the supernatant was collected and used as rat lens AR homogenate.
For AR inhibition assay, 100 µL of 0.1 M PBS (pH 7.0), 20 µL of AR homogenate, 20 µL of NADPH (cofactor, 2.4 mM in 0.1 M PBS of pH 8.0), 20 µL of the sample (in a mixture of water and DMSO; extracts and fractions 62.5–100 µg/mL, compounds 3.9–500 µM), and 20 µL of ammonium sulfate solution (4 M in 0.1 M PBS of pH 7.0) were pipetted into a 96-well plate. Then, 20 µL of the substrate (in 0.1 M PBS of pH 7.0; 25 mM of DL-glyceraldehyde dimmer) was added, and the absorbance (340 nm) was measured for 6 min using an Epoch microplate spectrophotometer (BioTek Instruments, Winooski, VT, USA). […] DMSO was used to prepare samples, but its ratio was kept within 0.5% (v/v) of the reaction system.
The half-maximal inhibitory concentrations (IC50 values) of samples against DPPH radicals and AR were calculated via linear regression and logarithmic analysis, respectively.

[3] = read-out: AR Inhibitory Activity Inhibition (%)

Compound | IC50 ([1]; linear regression) | IC50 [2] | inhibition at 0.39 µM [2, 3] | inhibition at 0.78 µM [2, 3] | inhibition at 1.56 µM [2, 3] | inhibition at 3.125 µM [2, 3] | DPPH Scavenging Activity Inhibition (%) ([1]; compound concentration 12.5 µM) | DPPH Scavenging Activity Inhibition (%) ([1]; compound concentration 25 µM) | DPPH Scavenging Activity Inhibition (%) ([1]; compound concentration 50 µM) | inhibition at 12.5 µM [2, 3] | inhibition at 25 µM [2, 3] | inhibition at 50 µM [2, 3] | DPPH Scavenging Activity IC50 ([1]; extracts, fractions and quercetin, linear regression) | DPPH Scavenging Activity Inhibition (%) ([1]; sample concentration 5 µg/mL) | DPPH Scavenging Activity Inhibition (%) ([1]; sample concentration 10 µg/mL) | DPPH Scavenging Activity Inhibition (%) ([1]; sample concentration 20 µg/mL) | inhibition at 2.5 µg/mL [2, 3] | inhibition at 5 µg/mL [2, 3] | inhibition at 6.25 µM [2, 3] | inhibition at 10 µg/mL [2, 3]
O=C(O)/C=C/c1ccc(O)c(O)c1 [Caffeic acid (1), Caffeic acid] |  |  |  |  |  |  | 8.60 ± 0.87% | 20.21 ± 0.58% | 43.33 ± 0.69% | 12.3 ± 2.09% | 17.8 ± 0.41% | 20.3 ± 0.62% |  |  |  |  |  |  |  | 
COc1ccc(-c2cc(=O)c3c(O)cc(O)cc3o2)cc1O [Diosmetin (6), Diosmetin] |  |  |  |  |  |  | 0.14 ± 0.34% | 0.46 ± 0.35% | 3.18 ± 0.42% | 10.5 ± 3.79% | 22 ± 1.25% | 34 ± 1.03% |  |  |  |  |  |  |  | 
COc1ccc(-c2cc(=O)c3c(O)cc(O[C@@H]4O[C@H](CO[C@@H]5O[C@@H](C)[C@H](O)[C@@H](O)[C@H]5O)[C@@H](O)[C@H](O)[C@H]4O)cc3o2)cc1O [Diosmin (4), Diosmin] |  |  |  |  |  |  | 0.31 ± 0.69% | 0.61 ± 1.08% | 2.61 ± 0.67% | 8.91 ± 0.62% | 11.2 ± 0.82% | 12.3 ± 0.62% |  |  |  |  |  |  |  | 
CCOC(=O)[C@@H](Cc1ccc(O)c(O)c1)OC(=O)/C=C/c1ccc(O)c(O)c1 [Ethyl rosmarinate (S1), Ethyl rosmarinate] | 30.54 ± 0.13 µM | 1.02 ± 0.07 µM | 27.4 ± 2.66% | 43.2 ± 0.62% | 60.5 ± 2.05% |  | 22.02 ± 0.35% | 38.38 ± 0.53% | 83.09 ± 0.21% |  |  |  |  |  |  |  |  |  |  | 
COc1ccc([C@@H]2CC(=O)c3c(O)cc(O[C@@H]4O[C@H](CO[C@@H]5O[C@@H](C)[C@H](O)[C@@H](O)[C@H]5O)[C@@H](O)[C@H](O)[C@H]4O)cc3O2)cc1O [Hesperidin (2), Hesperidin] |  |  |  |  |  |  | 1.20 ± 1.18% | 2.57 ± 0.77% | 3.37 ± 1.32% | 1.78 ± 0.33% | 10 ± 1.22% | 11.6 ± 0.41% |  |  |  |  |  |  |  | 
CCCOC(=O)[C@@H](Cc1ccc(O)c(O)c1)OC(=O)/C=C/c1ccc(O)c(O)c1 [Propyl rosmarinate (S2), Propyl rosmarinate] | 32.7 ± 0.08 µM | 1.29 ± 0.01 µM | 12.3 ± 1.84% | 37.9 ± 1.25% | 53.67 ± 0.41% |  | 17.68 ± 0.83% | 37.15 ± 0.29% | 77.82 ± 0.46% |  |  |  |  |  |  |  |  |  |  | 
O=c1c(O)c(-c2ccc(O)c(O)c2)oc2cc(O)cc(O)c12 [Quercetin, quercetin, reference compound] | 33.19 ± 0.31 µM |  |  |  |  |  | 22.31 ± 0.92% | 40.39 ± 0.82% | 72.32 ± 0.42% | 45 ± 1.65% | 65.1 ± 1.47% |  | 10.46 ± 0.34 ^e µg/mL | 28.65 ± 0.38% | 54.43 ± 2.07% | 84.78 ± 2.36% | 38.7 ± 0.91% | 55.3 ± 1.58% | 31.5 ± 1.7% | 64 ± 0.88%

Second part, led by results:

IC50 ([1]; linear regression) | IC50 [2] | inhibition at 0.39 µM [2, 3] | inhibition at 0.78 µM [2, 3] | inhibition at 1.56 µM [2, 3] | inhibition at 3.125 µM [2, 3] | Compound | DPPH Scavenging Activity Inhibition (%) ([1]; compound concentration 12.5 µM) | DPPH Scavenging Activity Inhibition (%) ([1]; compound concentration 25 µM) | DPPH Scavenging Activity Inhibition (%) ([1]; compound concentration 50 µM) | inhibition at 12.5 µM [2, 3] | inhibition at 25 µM [2, 3] | inhibition at 50 µM [2, 3] | DPPH Scavenging Activity IC50 ([1]; extracts, fractions and quercetin, linear regression) | DPPH Scavenging Activity Inhibition (%) ([1]; sample concentration 5 µg/mL) | DPPH Scavenging Activity Inhibition (%) ([1]; sample concentration 10 µg/mL) | DPPH Scavenging Activity Inhibition (%) ([1]; sample concentration 20 µg/mL) | inhibition at 2.5 µg/mL [2, 3] | inhibition at 5 µg/mL [2, 3] | inhibition at 6.25 µM [2, 3] | inhibition at 10 µg/mL [2, 3]
33.01 ± 0.27 µM | 1.17 ± 0.08 µM | 22.1 ± 0.85% | 40.9 ± 3.47% | 56.7 ± 0.85% |  | COC(=O)[C@@H](Cc1ccc(O)c(O)c1)OC(=O)/C=C/c1ccc(O)c(O)c1 [Methyl rosmarinate (5), Methyl rosmarinate] | 18.68 ± 0.63% | 37.59 ± 0.60% | 76.21 ± 1.04% |  |  |  |  |  |  |  |  |  |  | 
36.91 ± 0.35 µM | 4.08 ± 0.11 µM |  |  |  | 42.6 ± 1.63% | O=C(/C=C/c1ccc(O)c(O)c1)O[C@H](Cc1ccc(O)c(O)c1)C(=O)O [Rosmarinic acid (3), Rosmarinic acid] | 19.05 ± 1.33% | 34.35 ± 0.69% | 67.04 ± 0.64% | 76 ± 1.03% |  |  |  |  |  |  |  |  | 62.9 ± 2.1% | 
30.02 ± 0.1 µM | 1.54 ± 0.04 µM | 13.1 ± 0.47% | 28.6 ± 0.47% | 51.4 ± 0.94% |  | CCCCOC(=O)[C@@H](Cc1ccc(O)c(O)c1)OC(=O)/C=C/c1ccc(O)c(O)c1 [n-Butyl rosmarinate (7), n-Butyl rosmarinate] | 19.98 ± 0.29% | 40.73 ± 1.21% | 84.85 ± 0.81% |  |  |  |  |  |  |  |  |  |  | 
